Experimental data taken from PubChem BioAssay (NCI).
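Grown in 96-well plates, cells were treated for 48 hours with each compound at five concentrations. Insufficient inhibition: endpoint recorded as highest concentration tested. At the GI50, growth is halved. TGI is the concentration that stops growth completely.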

Experiments:
Assay in all cases: inhibition of tumour cell growth, NCI panel, 48 h
NCI-H522 lung = tested on: NCI-H522 lung
UACC-257 melanoma = tested on: UACC-257 melanoma
SNB-19 CNS = tested on: SNB-19 CNS
HCT-116 colon = tested on: HCT-116 colon
CCRF-CEM leukemia = tested on: CCRF-CEM leukemia
HCT-15 colon = tested on: HCT-15 colon
OVCAR-8 ovarian = tested on: OVCAR-8 ovarian
RPMI-8226 leukemia = tested on: RPMI-8226 leukemia
HOP-62 NSCLC = tested on: HOP-62 NSCLC
ACHN renal = tested on: ACHN renal

O=C1c2cccnc2-c2nc(-c3ccccc3[N+](=O)[O-])cc3c2c1nc1ccccc13
GI50 (NCI-H522 lung): 2.1 µM | TGI (NCI-H522 lung): 6.4 µM | GI50 (UACC-257 melanoma): 2.01 µM | TGI (UACC-257 melanoma): 13.3 µM | GI50 (SNB-19 CNS): 24.2 µM | TGI (SNB-19 CNS): 84.7 µM | GI50 (HCT-116 colon): 5.83 µM | TGI (HCT-116 colon): 16.7 µM | GI50 (CCRF-CEM leukemia): > 100 µM | TGI (CCRF-CEM leukemia): > 100 µM | GI50 (HCT-15 colon): 12 µM | TGI (HCT-15 colon): 32.9 µM | GI50 (OVCAR-8 ovarian): 13.1 µM | TGI (OVCAR-8 ovarian): 44.2 µM | GI50 (RPMI-8226 leukemia): > 23.8 µM | TGI (RPMI-8226 leukemia): > 100 µM | GI50 (HOP-62 NSCLC): 16 µM | TGI (HOP-62 NSCLC): 41 µM | GI50 (ACHN renal): 9.03 µM | TGI (ACHN renal): > 92.2 µM

COc1cc2c(c(OC)c1O)C(=O)C(OC)C(c1ccc(O)c(O)c1)O2 (stereo not given)
GI50 (NCI-H522 lung): 0.0599 µM | GI50 (UACC-257 melanoma): > 100 µM | TGI (UACC-257 melanoma): > 100 µM | GI50 (SNB-19 CNS): 0.275 µM | TGI (SNB-19 CNS): > 100 µM | GI50 (HCT-116 colon): 0.396 µM | TGI (HCT-116 colon): > 100 µM | GI50 (CCRF-CEM leukemia): 0.428 µM | TGI (CCRF-CEM leukemia): > 31 µM | GI50 (HCT-15 colon): 0.0776 µM | TGI (HCT-15 colon): > 100 µM | GI50 (OVCAR-8 ovarian): 0.484 µM | TGI (OVCAR-8 ovarian): > 100 µM | GI50 (RPMI-8226 leukemia): 0.285 µM | TGI (RPMI-8226 leukemia): 12.9 µM | GI50 (HOP-62 NSCLC): 0.712 µM | TGI (HOP-62 NSCLC): > 100 µM | GI50 (ACHN renal): 0.662 µM | TGI (ACHN renal): > 100 µM

O=c1cc(-c2cccc(O)c2)[nH]c2cc3c(cc12)OCO3
TGI (NCI-H522 lung): 0.951 µM | TGI (UACC-257 melanoma): > 100 µM | TGI (SNB-19 CNS): > 49.6 µM | TGI (HCT-116 colon): > 100 µM | TGI (CCRF-CEM leukemia): > 100 µM | TGI (HCT-15 colon): > 100 µM | TGI (OVCAR-8 ovarian): > 29.7 µM | TGI (RPMI-8226 leukemia): > 100 µM | TGI (HOP-62 NSCLC): 14.7 µM | TGI (ACHN renal): > 100 µM

CCOC(=O)c1ncn2c1[nH]c(=S)c1ccccc12
TGI (NCI-H522 lung): > 100 µM | TGI (UACC-257 melanoma): > 100 µM | TGI (SNB-19 CNS): > 100 µM | TGI (HCT-116 colon): > 100 µM | TGI (CCRF-CEM leukemia): > 100 µM | TGI (HCT-15 colon): > 100 µM | TGI (OVCAR-8 ovarian): > 100 µM | TGI (RPMI-8226 leukemia): > 100 µM | TGI (HOP-62 NSCLC): > 100 µM | TGI (ACHN renal): > 100 µM

Cc1cc2nc(C(Cl)Cl)nc(-c3ccc(Cl)cc3)n2n1
GI50 (NCI-H522 lung): 1.56 µM | TGI (NCI-H522 lung): 5.23 µM | GI50 (UACC-257 melanoma): 2.3 µM | TGI (UACC-257 melanoma): 5.49 µM | GI50 (SNB-19 CNS): 1.05 µM | TGI (SNB-19 CNS): 4.64 µM | GI50 (HCT-116 colon): 0.566 µM | TGI (HCT-116 colon): > 33.1 µM | GI50 (CCRF-CEM leukemia): 2.83 µM | TGI (CCRF-CEM leukemia): > 100 µM | GI50 (HCT-15 colon): 0.745 µM | TGI (HCT-15 colon): 3.47 µM | GI50 (OVCAR-8 ovarian): 0.964 µM | TGI (OVCAR-8 ovarian): > 100 µM | GI50 (RPMI-8226 leukemia): 1.36 µM | TGI (RPMI-8226 leukemia): 6.45 µM | GI50 (HOP-62 NSCLC): 0.864 µM | TGI (HOP-62 NSCLC): 4.27 µM | GI50 (ACHN renal): 0.386 µM | TGI (ACHN renal): 2.24 µM

C[C@@H](CS(C)(=O)=O)Nc1ncc2cc(Oc3ccc(F)cc3F)c(=O)n(C)c2n1
GI50 (NCI-H522 lung): > 25 µM | TGI (NCI-H522 lung): > 25 µM | GI50 (UACC-257 melanoma): > 25 µM | TGI (UACC-257 melanoma): > 25 µM | GI50 (SNB-19 CNS): > 25 µM | TGI (SNB-19 CNS): > 25 µM | GI50 (HCT-116 colon): > 25 µM | TGI (HCT-116 colon): > 25 µM | GI50 (CCRF-CEM leukemia): > 25 µM | TGI (CCRF-CEM leukemia): > 25 µM | GI50 (HCT-15 colon): > 25 µM | TGI (HCT-15 colon): > 25 µM | GI50 (OVCAR-8 ovarian): > 25 µM | TGI (OVCAR-8 ovarian): > 25 µM | GI50 (RPMI-8226 leukemia): > 25 µM | TGI (RPMI-8226 leukemia): > 25 µM | GI50 (HOP-62 NSCLC): > 25 µM | TGI (HOP-62 NSCLC): > 25 µM | GI50 (ACHN renal): > 25 µM | TGI (ACHN renal): > 25 µM

COc1ccc(NC(=O)c2cc(OC)cc(OC)c2)cc1
TGI (NCI-H522 lung): 83.8 µM | TGI (UACC-257 melanoma): > 100 µM | TGI (SNB-19 CNS): > 100 µM | TGI (HCT-116 colon): > 100 µM | TGI (CCRF-CEM leukemia): > 100 µM | TGI (HCT-15 colon): > 100 µM | TGI (OVCAR-8 ovarian): > 100 µM | TGI (RPMI-8226 leukemia): > 100 µM | TGI (HOP-62 NSCLC): > 100 µM | TGI (ACHN renal): > 100 µM

COc1ccc(-c2cc(-c3ccc(Nc4nc(Nc5ccccc5)nc(Nc5ccc(Cl)cc5)n4)cc3)nc(N)c2C#N)cc1
GI50 (NCI-H522 lung): 1.16 µM | TGI (NCI-H522 lung): 3.38 µM | GI50 (UACC-257 melanoma): 1.25 µM | TGI (UACC-257 melanoma): 3.15 µM | GI50 (SNB-19 CNS): > 24.8 µM | TGI (SNB-19 CNS): > 50 µM | GI50 (HCT-116 colon): 0.675 µM | TGI (HCT-116 colon): 1.37 µM | GI50 (CCRF-CEM leukemia): 1.7 µM | TGI (CCRF-CEM leukemia): > 50 µM | GI50 (HCT-15 colon): 1.2 µM | TGI (HCT-15 colon): 3.68 µM | GI50 (OVCAR-8 ovarian): 1.81 µM | TGI (OVCAR-8 ovarian): > 50 µM | GI50 (RPMI-8226 leukemia): 0.828 µM | TGI (RPMI-8226 leukemia): 3.79 µM | GI50 (HOP-62 NSCLC): 1.93 µM | TGI (HOP-62 NSCLC): 8.98 µM | GI50 (ACHN renal): 0.885 µM | TGI (ACHN renal): 1.77 µM

CC1(C)COC(c2ccc(C(F)(F)F)cc2C(O)c2ccc3ccccc3c2)=N1 (stereo not given)
TGI (NCI-H522 lung): > 10 µM | GI50 (UACC-257 melanoma): > 100 µM | TGI (UACC-257 melanoma): > 100 µM | GI50 (SNB-19 CNS): > 10 µM | TGI (SNB-19 CNS): > 100 µM | TGI (HCT-116 colon): > 10 µM | GI50 (CCRF-CEM leukemia): > 100 µM | TGI (CCRF-CEM leukemia): > 100 µM | GI50 (HCT-15 colon): > 100 µM | TGI (HCT-15 colon): > 100 µM | GI50 (OVCAR-8 ovarian): > 100 µM | TGI (OVCAR-8 ovarian): > 100 µM | TGI (RPMI-8226 leukemia): > 100 µM | GI50 (HOP-62 NSCLC): > 100 µM | TGI (HOP-62 NSCLC): > 100 µM | GI50 (ACHN renal): > 100 µM | TGI (ACHN renal): > 100 µM

COc1cc2cnc3c4cc(OC(C)C)c(OC)cc4ccc3c2cc1OC
TGI (NCI-H522 lung): > 100 µM | TGI (UACC-257 melanoma): > 100 µM | TGI (SNB-19 CNS): > 100 µM | TGI (HCT-116 colon): > 100 µM | TGI (CCRF-CEM leukemia): > 100 µM | TGI (HCT-15 colon): > 100 µM | TGI (OVCAR-8 ovarian): > 100 µM | TGI (RPMI-8226 leukemia): > 100 µM | TGI (HOP-62 NSCLC): > 100 µM | TGI (ACHN renal): > 100 µM

COc1ccc2c(c1)C(=O)/C(=C/c1ccc(OCC(=O)Nc3nccs3)cc1)O2
GI50 (NCI-H522 lung): 0.191 µM | TGI (NCI-H522 lung): 0.393 µM | GI50 (UACC-257 melanoma): 18 µM | TGI (UACC-257 melanoma): 36.6 µM | GI50 (SNB-19 CNS): 20.4 µM | TGI (SNB-19 CNS): > 65.7 µM | GI50 (HCT-116 colon): 2.75 µM | TGI (HCT-116 colon): 10.7 µM | GI50 (CCRF-CEM leukemia): 0.183 µM | GI50 (HCT-15 colon): 4.51 µM | TGI (HCT-15 colon): 17.8 µM | GI50 (OVCAR-8 ovarian): 17.2 µM | TGI (OVCAR-8 ovarian): > 60.5 µM | GI50 (RPMI-8226 leukemia): 0.439 µM | TGI (RPMI-8226 leukemia): 4.56 µM | GI50 (HOP-62 NSCLC): 0.491 µM | TGI (HOP-62 NSCLC): 26 µM | GI50 (ACHN renal): 2.67 µM | TGI (ACHN renal): 20.5 µM
